Results from US12611392B2, “Mitochondria-targeting antioxidants” (GIVAUDAN SA, priority 2019, dated 2026).
Read-outs that look alike come from different tables or passages of the source.

Legend:
[1] = cited from earlier work
[2] = system: ROS production in cardiac tissue; assay: ROS production by dihydroethidium (DHE) staining of cardiac tissue after ischemia-reperfusion; parameters: species or system rat; details: 10 min after IR; for reduction of DHE fluorescence compared to control hearts: MitoT 0.1 μM, sinapine 60 μM
Protocol: LV samples were embedded in Optimal Cutting Temperature (OCT from Tissue-Tek) and flash-frozen in liquid nitrogen. Frozen sections were covered with 10 μM DHE and incubated in alight-protected humidified chamber at 37° C. for 5 min. Images were obtained with a fluorescence microscope (Olympus BX60, Excitation: 488 nm; emission: 610 nm) at the Imaging facility 3A INRA/University of Avignon. SOD-mimetic TEMPOL (10 mM, Santa Cruz Biotechnology) was used as a negative control to confirm that the signals resulted from ROS production.

[3] = Partition between octan-1-ol and aqueous solution at pH 7.0 (log P / log D); details: for partition in octan-1-ol: octan-1-ol / water pH 7.0; for share in the aqueous phase: octan-1-ol / water
Protocol: In a 10-mL glass tube, two milligrams of sinapine, sinapic acid or MitoTEMPO were added by 4 mL of a 75 mM KH2PO4 buffer solution (aqueous phase), and 4 mL of octan-1-ol. The mixture was then vortexed for 1 hour at room temperature and left to equilibrate for 30 min for sinapic acid and sinapine, and overnight for MitoTEMPO. Both phases were collected with a Pasteur pipette and extemporaneously analyzed by LC-MS using the procedure described below in section 2.7.
The partition coefficient of sinapine, sinapic acid and MitoTEMPO (a commercially-available mitonchondria-targeting superoxide dismutase (SOD) mimetic) between two immiscible liquid phases (octan-1-ol and an aqueous solution at pH 7.0) was measured.

[4] = Plasmatic and tissular levels after oral administration of sinapine; type: in vivo, rat; details: oral sinapine 200 mg/kg; for level in cytosolic and mitochondrial fractions of the heart: 120 min post-gavage; for plasmatic level: 10, 30, 60, 120 min
Protocol: To evaluate plasmatic and tissular bioavailability of sinapine, rats received 200 mg/kg of sinapine by oral gavage. […] Sinapine and sinapic acid were then quantified in plasma using the following procedure: plasma (50 μL) is mixed with internal standard solution (50 μL in methanol at 10 ng/mL) and mix on a vortex for 1 minute. The solution is then centrifuge for 3 minutes at 12000 rpm, and the supernatant injected into HPLC/MS for quantification. At the end of the procedure the animals were sacrificed and hearts quickly removed. The right ventricle cleaned and LV samples frozen in liquid nitrogen. LV tissue was homogenized in 2 mL of mitochondria isolation buffer (pH 7.2; in mM: 300 saccharose, 5 TES. 0.2 EGTA), using a Polytron (Ultra Turrax T25, IKA Labortechnik). The homogenate was centrifugated at 1,000 g for 10 min at 4° C. To separate cytosolic fraction from the mitochondrial one, the supernatant was centrifugated at 12,000 g for 15 min to 4° C., then collected (cytosolic fraction), while the pellet was collected for mitochondria fraction. To optimize the release of mitochondria materials, the pellet was homogenized in 2% Triton-X lysis buffer during 10 min on ice. To remove Triton-X, mitochondrial fraction was washed, then centrifuged (12,000 g for 15 min at 4° C.) and the pellet was resuspended in mitochondria isolation buffer. Cytosolic and mitochondria fraction obtained were quickly frozen in liquid nitrogen until HPLC measurement. To do so, mitochondria was extracted with the same procedure as for plasma procedure. Cytosol (50 μL) was pipetted into 10 mL volumetric flask, spiked successively with internal standard solution (200 μL at 250 ng/mL in methanol) and 5 mL of methanol-water (50/50 v:v). The flask was ultrasonicated for 5 min, and once cooled down, completed to 10 mL with methanol-water (50/50 v:v). Both the mitochondrial and the cytosolic fractions were analyzed with the LC-MS/MS procedure described above.
After 120 min post-gavage, the heart was removed, rinsed and quickly frozen in liquid nitrogen.

[5] = Conjugated autoxidizable triene (CAT) assay; details: oil-in-water microemulsion; n=3
From the text: (§1) The result of this operation gave the net area under the curve (AUC) which was then plotted on a graph as a function of the concentration.

[6] = Oxygen radical absorbance capacity (ORAC) assay; details: aqueous solution; n=4
From the text: as §1

cardiomyocytes = assay: Cytosol/mitochondria partitioning in cardiomyocytes by LC-MS/MS
Protocol: (§2) Ventricular cardiomyocytes were isolated from 200-250 g male adult Wistar rats as previously described (Cazorla et al. Transmural stretch-dependent regulation of contractile properties in rat heart and its alteration after myocardial infarction. FASEB J. 2005, 19, 88-90). The rats were anesthetized by i.p. injection of pentobarbital sodium (100 mg/kg) with heparin (100 U). The heart was rapidly excised, rinsed in ice-cold Hanks-HEPES buffer (in mM: NaCl 117, KCl 5.7. NaHCO3 4.4, KH2PO4 1.5. MgCl2 1.7, HEPES 21, glucose 11.7, taurine 20. pH at 7.15) mounted on a Langendort perfusion system and perfused (3 mi/min, at 37° C.) first with a Hanks-HEPES buffer for 5 min to be cleared from blood, then with a buffer supplemented with 1.2 mg/mL collagenase type 4 (Worthington, Lakewood, N.J., USA) for 13-18 min. Small pieces of left ventricle were dissected and mechanically dissociated. […] Experiments were performed in Tyrode solution with 1.8 mM Ca^2+.
Antioxidants were also quantified in cardiomyocytes using LC-MS/MS. Cardiomyocytes (100,000 cells/mL) were incubated in Tyrode for 1 or 2 h with different concentrations of sinapine (2, 20, and 60 μM) or sinapic acid (Sigma Aldrich, 2, 20, and 60 μM). Extracellular, cytosolic and mitochondrial fractions were obtained and frozen in liquid nitrogen until HPLC measurement. After incubation, cells were sedimented and the supernatant collected for the extracellular fraction. The pellet of cells was rinsed twice in Tyrode. Cells were incubated with PBS containing digitonine (5 mg/mL) for 10 min on ice. Cells were centrifugated at 10,000 g for 20 min at 4° C., and the supernatant consisting in the cytosolic fraction was collected. The mitochondrial fraction was collected after rinsing five times the pellets in PBS to avoid contamination of the cytosolic fraction.
These different fractions were then analyzed using an Agilent Poroshell EC-C18 120, 2.7 microns, 2.1×150 mm analytical column on an Agilent 1290 Infinity II series pump. Injection volume was 1 μL. HPLC flow rate was 0.3 mL/min with the following mobile phases: water with 0.1% formic acid (A) and acetonitrile with 0.1% formic acid (B). The gradient was as follows: 0.0-3.0 min 0-30% B, 3.0-7.0 min 30-60% B, then a stabilization step of 4 min at the initial condition. Autosampler tray temperature was set to 10° C. and column temperature was set to 25° C. Detection was performed with an Agilent 6420 triple quadrupole in positive ionization mode with ESI source, gas temperature 325° C., gas flow 9 L/min, nebulizer 35 psi, and capillary voltage 3500 V. Mass spectrometer was working in MRM mode acquisition following the specific transition for Isoproturon-d3 (internal standard 210.2→75.0), Sinapine 310.2→251.1 (qualifier 175.0 and 91.0) and Sinapic acid 225.1→207.0 (qualifier 91.0 and 65.0).
To further evaluate if a positively charged moiety (such as choline) can endowed an antioxidant devoid of any lipid affinity with the ability to accumulate in mitochondria, we incubated sinapine and sinapic acid (lacking the choline group, i.e. negative control) in intact cardiomyocytes at three concentrations (2, 20, and 60 μM) for 1 or 2 h. Then, the mitochondrial fraction was separated from the cytosolic one using differential centrifugation. The levels of sinapine and sinapic acid were measured in each subcellular fraction using LC-MS/MS.

[7] = system: ROS production in isolated adult rat cardiomyocytes; assay: H2O2 and antimycin A-induced oxidative stress in cardiomyocytes (H2DCF-DA and DHR123 probes); type: cell-based; details: for effect on H2O2-induced increase in H2DCF-DA fluorescence (cytosolic ROS): 0.1 mM H2O2, 1 h pre-incubation; for effect on H2O2-induced increase in H2DCF-DA fluorescence (cytosolic ROS) / effect of pre-incubation on basal H2DCF-DA and DHR123 fluorescence: sinapic acid 60 μM; for effect of pre-incubation on basal H2DCF-DA and DHR123 fluorescence: control (basal) cells, no stress, sinapine 6 or 60 μM, 1 h
Protocol: Cardiomyocytes (30,000 cell/mL) were incubated with sinapine or sinapic acid for 1 h. Thirty minutes before the end, a fluorogenic probe was added. We used dihydrorhodamine 123 (DHR123) to probe mitochondrial H2O2 and peroxynitrites (Invitrogen Molecular probes Fischer scientific, D23806, Ex/Em: 508/529 nm, concentration=5 μM) and 2′,7′-dichlorodihydrofluorescein diacetate (H2DCF-DA) to probe cytosolic H2O2(Invitrogen Molecular probes Fischer scientific, D399 Ex/Em: 492/517 nm, concentration=5 μM). Cells were rinsed with a Tyrode solution and distributed in microplates for the various conditions. Some cells were stimulated with 0.1 mM H2O2(Sigma Aldrich) or with a 10 μM complex III blocker, antimycin A (AA, Sigma Aldrich) to force the cell to produce mitochondrial ROS. The microplate was immediately transferred to the microplate reader Tecan Infinite M200Pro. Fluorescence was measured at the different wavelengths every 5 min for 30 min.
Two different ROS sensitive fluorogenic probes were used, H2DCF-DA and DHR123, which are specific of cytosolic and mitochondrial ROS production, respectively (Wei et al. Nitric oxide induces oxidative stress and apoptosis in neuronal cells. Biochim. Biophys. Acta-Mol. Cell Res. 2000, 1498, 72-79; Rego et al. Influence of the antioxidants vitamin E and idebenone on retinal cell injury mediated by chemical ischemia, hypoglycemia, or oxidative stress. Free Rad Biol. Med. 1999, 26, 1405-1417; Mark et al. Basic FGF attenuates amyloid β-peptide-induced oxidative stress, mitochondrial dysfunction, and impairment of Na+/K+-ATPase activity in hippocampal neurons. Brain Res. 1997, 756, 205-214).
Myocytes loaded with one of the probes were distributed in microplate wells. ROS production was determined by following the increase of fluorescence for […]. Fluorescence was measured every 5 min and was normalized by the baseline fluorescence (T0). Some cells were incubated with either sinapine (6 or 60 μM) or sinapic acid (60 μM) for 1 h prior measurement. After the incubations, cells were washed out. Some cells were stimulated with 0.1 mM H2O2 or with a mitochondrial electron transport chain complex III blocker, 10 μM antimycin A (AA) to force mitochondria to produce mitochondrial ROS (Quinlan et al. The mechanism of superoxide production by the antimycin-inhibited mitochondrial Q-cycle. J. Biol. Chem. 2011, 286, 31361-31372).

[8] = system: isolated adult cardiomyocytes; details: male, Wistar, rat, 2 μM
Protocol: as §2

[9] = 2, 20 and 60 μM, 1 or 2 h incubation

Structure (SMILES)	log D/log P (pH 7.0) [1]	reduction of DHE fluorescence compared to control hearts [2] [%]	partition in octan-1-ol [3] [%]	level in cytosolic and mitochondrial fractions of the heart [4]	plasmatic level [4]	ORAC value [6]	share in the aqueous phase [3] [%]	effect on H2O2-induced increase in H2DCF-DA fluorescence (cytosolic ROS) ([7]; sinapine 6 and 60 μM)	effect of pre-incubation on basal H2DCF-DA and DHR123 fluorescence [7]	also measured
COC1=C(OC)C(=O)C(CCC[P+](c2ccccc2)(c2ccccc2)c2ccccc2)=C(C)C1=O [MitoQ3]	0.5	–	–	–	–	–	–	–	–	–
COC1=C(OC)C(=O)C(CCCCC[P+](c2ccccc2)(c2ccccc2)c2ccccc2)=C(C)C1=O [MitoQ5]	1.1	–	–	–	–	–	–	–	–	–
COC1=C(OC)C(=O)C(CCCCCCCCCC[P+](c2ccccc2)(c2ccccc2)c2ccccc2)=C(C)C1=O.CS(=O)(=O)[O-] [MitoQ10]	3.4	–	–	–	–	–	–	–	–	–
CC1(C)CC(NC(=O)C[P+](c2ccccc2)(c2ccccc2)c2ccccc2)CC(C)(C)N1[O] [MitoTEMPO]	–	24	50	–	–	–	–	–	–	log D (pH 7.0) ([3]; octan-1-ol / aqueous buffer, experimental): 0.0; partitioning in both phases ([3]; octan-1-ol / aqueous phase, pH 7.0): 50/50
COc1cc(/C=C/C(=O)O)cc(OC)c1O [sinapic acid]	–	–	–	not found in any of the fractions	detected at all time points at a relatively stable level	2.73±0.176 mol of Trolox equivalent per mol of compound	> 85	prevented the increase in H2DCF-DA	no impact on the fluorescence level	plasma amount of sinapic acid relative to sinapine ([4]; 2 h period): about five times more sinapic acid than sinapine; ROS production (DHE) versus Ctrl ([2]; sinapic acid 60 μM, not significant (p=0.12)): −20%; CAT value [5]: 1.74±0.07 mol of Trolox equivalent per mol of compound; log P ([3]; octan-1-ol / aqueous solution at pH 7.0): −0.9; time of entry into cardiac cells (cardiomyocytes): within an hour
COc1cc(/C=C/C(=O)OCC[N+](C)(C)C)cc(OC)c1O [sinapine]	–	45	< 0.2	detected and quantified in both the cytosol and mitochondria	detected at all time points at a relatively stable level	2.28±0.25 mol of Trolox equivalent per mol of compound	> 99	prevented the increase in H2DCF-DA	no impact on the fluorescence level	time after which fluorescence increased [8]: 10 to 15 min; logD ([3]; pH 7): -3; logP ([3]; pH 7): -3; level of the incubated compound in cytosol (cardiomyocytes; [9]): detected sinapine in a dose dependent manner; level of the incubated compound in mitochondria (cardiomyocytes; [9]): detected in a dose-dependent manner in mitochondria; share of sinapine entering the mitochondria that is hydrolyzed to sinapic acid (cardiomyocytes; after 1 or 2 h): approximately 25%; time of entry into cardiac cells (cardiomyocytes; no time-dependency between 1 and 2 h): within an hour; hydrolysis of sinapine in cytosol (sinapic acid not detected) (cardiomyocytes; sinapine incubation 1 or 2 h): no major sinapine hydrolysis; effect on antimycin A-induced increase in DHR123 fluorescence (mitochondrial ROS) ([7]; 10 μM antimycin A, 1 h pre-treatment): prevented by sinapine; dose dependence of the effect on H2O2-induced H2DCF-DA increase ([7]; sinapine 6 and 60 μM): dose-dependent
